Source: ChEMBL document CHEMBL1201862, “PubChem BioAssay data set” (2004)
Values joined by “and” are separate entries in the source; they are usually repeats but may differ in a detail not shown here. Equal entries are not always repeated.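 These data come from cells grown in 96-well plates and exposed to compound for 48 hours at five concentrations. Here, GI50 denotes the concentration required for 50% inhibition of growth.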 Active and inactive are the calls of the source. Rule as the data show it: active = GI50 up to about 1.1 µM and inactive = higher.

Tests used:
Test in all cases: inhibition of tumour cell growth, NCI panel, 48 h
HT-29 = system: HT-29
NCI-H522 = system: NCI-H522
HL-60 = system: HL-60
MDA-MB-231 = system: MDA-MB-231
BT-549 = system: BT-549
OVCAR-4 = system: OVCAR-4
HOP-62 = system: HOP-62
OVCAR-3 = system: OVCAR-3
SN12C = system: SN12C
SF-295 = system: SF-295
ACHN = system: ACHN
U-251 = system: U-251
TK-10 = system: TK-10
OVCAR-8 = system: OVCAR-8
MCF7 = system: MCF7
UO-31 = system: UO-31
RXF 393 = system: RXF 393
SF-539 = system: SF-539
NCI-H226 = system: NCI-H226
COLO 205 = system: COLO 205

Measured: GI50

c1ccc2sc(SCCSc3nc4ccccc4s3)nc2c1
inactive: HT-29 > 100 µM | NCI-H522 > 100 µM | HL-60 65.8 µM | MDA-MB-231 > 100 µM | BT-549 > 100 µM | OVCAR-4 52.1 µM | HOP-62 > 100 µM | OVCAR-3 > 100 µM | SN12C > 100 µM | SF-295 > 100 µM | ACHN > 100 µM | U-251 > 100 µM | TK-10 > 100 µM | OVCAR-8 > 100 µM | MCF7 > 100 µM | UO-31 > 100 µM | RXF 393 > 100 µM

CSc1nc(C#N)c(N)n1C
inactive: SF-539 > 100 µM | NCI-H522 > 100 µM | HL-60 > 100 µM | MDA-MB-231 > 100 µM | BT-549 > 100 µM | OVCAR-4 > 100 µM | HOP-62 > 100 µM | OVCAR-3 > 100 µM | SN12C > 100 µM | SF-295 > 100 µM | ACHN > 100 µM | U-251 > 100 µM | TK-10 > 100 µM | OVCAR-8 > 100 µM | NCI-H226 > 100 µM | UO-31 > 100 µM | COLO 205 > 100 µM | RXF 393 > 100 µM

O=C(Nc1ccc(Cl)c(Cl)c1)C(=O)C(C1OC(=O)c2ccccc21)[N+](=O)[O-] (stereo unspecified)
inactive: SF-539 > 100 µM | HT-29 > 100 µM | NCI-H522 > 100 µM | MDA-MB-231 > 100 µM | BT-549 > 100 µM | OVCAR-4 > 100 µM | HOP-62 > 100 µM | OVCAR-3 > 100 µM | SN12C > 100 µM | SF-295 > 100 µM | ACHN > 100 µM | U-251 > 100 µM | TK-10 > 100 µM | OVCAR-8 > 100 µM | MCF7 > 100 µM | NCI-H226 > 100 µM | UO-31 > 100 µM | COLO 205 > 100 µM | RXF 393 95.1 µM

O=C(c1ccccc1)N1N=C(C(F)(F)F)CC1(O)C(F)(F)F (stereo unspecified)
inactive: SF-539 > 100 µM | HT-29 > 100 µM | NCI-H522 > 100 µM | HL-60 > 100 µM | MDA-MB-231 > 100 µM | BT-549 > 100 µM | OVCAR-4 > 100 µM | HOP-62 > 100 µM | OVCAR-3 > 100 µM | SN12C > 100 µM | SF-295 > 100 µM | ACHN > 100 µM | U-251 > 100 µM | TK-10 > 100 µM | OVCAR-8 > 100 µM | MCF7 > 100 µM | NCI-H226 > 100 µM | UO-31 > 100 µM | COLO 205 > 100 µM

O=C1CC(c2ccco2)C2(C(=O)NC(=O)NC2=O)C(c2ccco2)C1 (stereo unspecified)
inactive: SF-539 > 75 µM | HT-29 > 75 µM | NCI-H522 > 75 µM | HL-60 > 75 µM | MDA-MB-231 > 75 µM | BT-549 > 75 µM | OVCAR-4 > 75 µM | HOP-62 > 75 µM | OVCAR-3 > 75 µM | SN12C > 75 µM | SF-295 > 75 µM | ACHN > 75 µM | U-251 > 75 µM | TK-10 > 75 µM | OVCAR-8 > 75 µM | MCF7 > 75 µM | UO-31 > 75 µM | COLO 205 > 75 µM | RXF 393 > 75 µM

COC(=O)[C@]12CCC(=O)N1[C@H](C(=O)O)Cc1c2[nH]c2ccccc12
inactive: SF-539 > 100 µM | HT-29 > 100 µM | NCI-H522 > 100 µM | MDA-MB-231 > 100 µM | BT-549 > 100 µM | OVCAR-4 > 100 µM | HOP-62 > 100 µM | OVCAR-3 > 100 µM | SN12C > 100 µM | SF-295 > 100 µM | ACHN > 100 µM | U-251 > 100 µM | TK-10 > 100 µM | OVCAR-8 > 100 µM | MCF7 > 100 µM | UO-31 > 100 µM | COLO 205 > 100 µM | RXF 393 > 100 µM

C=C(C)CCC(O)[C@](C)(O)[C@H]1[C@H](O)C[C@@]2(C)[C@@H]3CCc4c(cc(OC5OC(CO)C(O)C(O)C5O)c(O)c4C)C3(C)C(=O)C[C@]12C (stereo partly specified)
inactive: SF-539 > 100 µM | HT-29 > 100 µM | NCI-H522 > 100 µM | MDA-MB-231 > 100 µM | BT-549 > 100 µM | OVCAR-4 > 100 µM | HOP-62 > 100 µM | OVCAR-3 > 100 µM | SN12C > 100 µM | SF-295 > 100 µM | ACHN > 100 µM | U-251 > 100 µM | TK-10 > 100 µM | OVCAR-8 > 100 µM | MCF7 > 100 µM | NCI-H226 > 100 µM | UO-31 > 100 µM | COLO 205 > 100 µM | RXF 393 > 100 µM

c1ccc2[nH]c(-c3cscn3)nc2c1 [THIABENDAZOLE]
inactive: SF-539 > 100 µM | HT-29 > 100 µM and 77.1 µM | NCI-H522 > 100 µM | HL-60 > 100 µM | MDA-MB-231 > 100 µM | BT-549 > 100 µM | OVCAR-4 > 100 µM | OVCAR-3 > 100 µM | SN12C > 100 µM | SF-295 > 100 µM | ACHN > 100 µM | U-251 > 100 µM | TK-10 > 100 µM | OVCAR-8 > 100 µM | MCF7 > 100 µM | NCI-H226 > 100 µM | COLO 205 > 100 µM
